Data from the supplement of paper PMC10307832.

Assays:
Assay in all cases: relative viability (nuclei count vs DMSO), 5 days (fraction); higher = more cells survive
Dovitinib + Phenformin = compound: CN1CCN(c2ccc3nc(-c4c(N)c5c(F)cccc5[nH]c4=O)[nH]c3c2)CC1 [Dovitinib] + N=C(N)NC(=N)NCCc1ccccc1 [Phenformin] (partner 250 µM)
Procedure, shortened: (§1)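 Relative viability divides the nuclei count in treated wells by that in vehicle wells. Lung cancer cell lines were seeded in 1536-well plates, dosed by pin tool the next day, and fixed and stained after 5 days in one step with final 0.05% Triton X-100, 1% formaldehyde and 1 ug/ml Hoechst. Dosing was a single drug or a fixed anchor-drug dose plus five library-drug doses (not always all listed) in √10 steps, and values are medians of duplicate plates imaged at 4×.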

Dovitinib + Pictilisib = compound: CN1CCN(c2ccc3nc(-c4c(N)c5c(F)cccc5[nH]c4=O)[nH]c3c2)CC1 [Dovitinib] + CS(=O)(=O)N1CCN(Cc2cc3nc(-c4cccc5[nH]ncc45)nc(N4CCOCC4)c3s2)CC1 [Pictilisib] (partner 1 µM)
Procedure, shortened: as §1

Dovitinib + Decitabine = compound: CN1CCN(c2ccc3nc(-c4c(N)c5c(F)cccc5[nH]c4=O)[nH]c3c2)CC1 [Dovitinib] + Nc1ncn([C@H]2C[C@H](O)[C@@H](CO)O2)c(=O)n1 [Decitabine] (partner 2 µM)
Procedure, shortened: as §1

Dovitinib + Palbociclib = compound: CN1CCN(c2ccc3nc(-c4c(N)c5c(F)cccc5[nH]c4=O)[nH]c3c2)CC1 [Dovitinib] + CC(=O)c1c(C)c2cnc(Nc3ccc(N4CCNCC4)cn3)nc2n(C2CCCC2)c1=O [Palbociclib] (partner 0.5 µM)
Procedure, shortened: as §1

| Cell Line | relative viability (Dovitinib + Phenformin; first compound 0.02 µM) | relative viability (Dovitinib + Phenformin; first compound 0.06325 µM) | relative viability (Dovitinib + Phenformin; first compound 0.2 µM) | relative viability (Dovitinib + Phenformin; first compound 0.6325 µM) | relative viability (Dovitinib + Phenformin; first compound 2 µM) | relative viability (Dovitinib + Pictilisib; first compound 0.02 µM) | relative viability (Dovitinib + Pictilisib; first compound 0.06325 µM) | relative viability (Dovitinib + Pictilisib; first compound 0.2 µM) | relative viability (Dovitinib + Pictilisib; first compound 0.6325 µM) | relative viability (Dovitinib + Pictilisib; first compound 2 µM) | relative viability (Dovitinib + Decitabine; first compound 0.02 µM) | relative viability (Dovitinib + Decitabine; first compound 0.06325 µM) | relative viability (Dovitinib + Decitabine; first compound 0.2 µM) | relative viability (Dovitinib + Decitabine; first compound 0.6325 µM) | relative viability (Dovitinib + Decitabine; first compound 2 µM) | relative viability (Dovitinib + Palbociclib; first compound 0.02 µM) | relative viability (Dovitinib + Palbociclib; first compound 0.06325 µM) | relative viability (Dovitinib + Palbociclib; first compound 0.2 µM) | relative viability (Dovitinib + Palbociclib; first compound 0.6325 µM) | relative viability (Dovitinib + Palbociclib; first compound 2 µM) |
| --- | --- | --- | --- | --- | --- | --- | --- | --- | --- | --- | --- | --- | --- | --- | --- | --- | --- | --- | --- | --- |
| LCLC-103H | 0.357 | 0.331 | 0.336 | 0.345 | 0.305 | 0.661 | 0.555 | 0.645 | 0.614 | 0.577 | 0.722 | 0.775 | 0.75 | 0.758 | 0.739 | 0.482 | 0.454 | 0.496 | 0.474 | 0.462 |
| NCI-H441 | 0.981 | 0.786 | 0.767 | 0.898 | 0.839 | 0.521 | 0.528 | 0.517 | 0.477 | 0.47 | 0.254 | 0.202 | 0.271 | 0.223 | 0.3 | 0.22 | 0.195 | 0.212 | 0.221 | 0.194 |
| SK-LU-1 | 0.515 | 0.525 | 0.594 | 0.595 | 0.528 | 0.64 | 0.657 | 0.513 | 0.73 | 0.576 | 0.614 | 0.636 | 0.662 | 0.758 | 0.572 | 0.39 | 0.372 | 0.358 | 0.481 | 0.38 |
| BEN | 0.248 | 0.288 | 0.281 | 0.296 | 0.305 | 0.565 | 0.548 | 0.553 | 0.661 | 0.493 | 0.754 | 0.599 | 0.683 | 0.783 | 0.71 | 0.477 | 0.46 | 0.456 | 0.478 | 0.492 |
| LC-2-ad | 0.644 | 0.543 | 0.621 | 0.517 | 0.606 | 0.535 | 0.463 | 0.446 | 0.439 | 0.36 | 0.777 | 0.815 | 0.711 | 0.795 | 0.774 | 0.484 | 0.449 | 0.472 | 0.484 | 0.504 |
| COR-L23 | 0.416 | 0.467 | 0.478 | 0.455 | 0.507 | 0.733 | 0.75 | 0.813 | 0.838 | 0.904 | 0.439 | 0.43 | 0.438 | 0.501 | 0.484 | 0.269 | 0.261 | 0.306 | 0.372 | 0.324 |
| NCI-H1650 | 0.517 | 0.5 | 0.513 | 0.448 | 0.388 | 0.62 | 0.577 | 0.654 | 0.608 | 0.678 | 0.448 | 0.362 | 0.489 | 0.44 | 0.442 | 0.392 | 0.338 | 0.328 | 0.349 | 0.386 |
| RERF-LC-KJ | 0.412 | 0.417 | 0.447 | 0.42 | 0.384 | 0.556 | 0.643 | 0.472 | 0.428 | 0.49 | 0.709 | 0.729 | 0.701 | 0.685 | 0.637 | 1.09 | 1 | 1.08 | 1.1 | 1.01 |
| NCI-H1915 | 0.361 | 0.38 | 0.365 | 0.358 | 0.379 | 0.877 | 0.893 | 0.912 | 0.891 | 0.961 | 0.26 | 0.258 | 0.246 | 0.251 | 0.284 | 0.512 | 0.533 | 0.537 | 0.488 | 0.553 |
| NCI-H2009 | 0.456 | 0.493 | 0.47 | 0.408 | 0.562 | 0.781 | 0.74 | 0.795 | 0.854 | 0.725 | 0.428 | 0.431 | 0.403 | 0.344 | 0.4 | 0.203 | 0.202 | 0.291 | 0.353 | 0.244 |
| NCI-H2126 | 0.524 | 0.504 | 0.582 | 0.536 | 0.581 | 0.476 | 0.462 | 0.463 | 0.559 | 0.504 | 0.605 | 0.573 | 0.676 | 0.556 | 0.599 | 0.363 | 0.357 | 0.354 | 0.339 | 0.327 |
| LXF-289 | 0.514 | 0.532 | 0.551 | 0.513 | 0.537 | 0.716 | 0.801 | 0.842 | 0.862 | 0.783 | 0.438 | 0.402 | 0.391 | 0.372 | 0.359 | 0.577 | 0.604 | 0.621 | 0.598 | 0.566 |
| HCC-44 | 0.294 | 0.138 | 0.174 | 0.229 | 0.197 | 0.516 | 0.594 | 0.642 | 0.62 | 0.591 | 0.926 | 0.936 | 0.97 | 0.962 | 0.92 | 0.93 | 0.994 | 0.969 | 0.985 | 0.95 |
| PC-14 | 0.657 | 0.563 | 0.553 | 0.542 | 0.765 | 0.632 | 0.72 | 0.685 | 0.691 | 0.543 | 0.21 | 0.224 | 0.241 | 0.217 | 0.22 | 0.461 | 0.622 | 0.572 | 0.467 | 0.537 |
| HOP-62 | 0.616 | 0.713 | 0.742 | 0.55 | 0.646 | 0.578 | 0.753 | 0.605 | 0.665 | 0.632 | 0.208 | 0.255 | 0.191 | 0.269 | 0.214 | 0.355 | 0.456 | 0.465 | 0.396 | 0.499 |
| NCI-H358 | 0.291 | 0.357 | 0.408 | 0.317 | 0.319 | 0.343 | 0.308 | 0.367 | 0.356 | 0.45 | 0.237 | 0.214 | 0.247 | 0.238 | 0.206 | 0.153 | 0.141 | 0.118 | 0.135 | 0.135 |
